{"source": "PubChem BioAssay AID2060601", "about": "(Molecular Pharmacology Branch, DTP, NCI, 2025)", "tested_on": "874868-142-R-J2-PDC complex spheroids, growth % test/control", "assay": "Anticancer human tumor 874868-142-R-J2-PDC patient-derived head and neck squamous carcinoma cell line growth inhibition [CLK]", "conditions": "for IC50: curve of first compound; for viability, T/C: stronger effect = lower value", "summary_of_the_method": "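Patient-derived tumor cells grown as complex spheroids with HUVEC endothelial cells and mesenchymal stem cells, treated with drug combinations. Concentrations descend in half-log steps from near clinical Cmax, or from 10 microM if Cmax unknown.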", "key": {"[1]": {"conditions": "second compound 0.0316 µM, first compound 0.00949 µM"}, "[2]": {"conditions": "second compound 0.0316 µM, first compound 0.03 µM"}, "[3]": {"conditions": "second compound 0.0316 µM, first compound 0.0949 µM"}, "[4]": {"conditions": "second compound 0.0316 µM, first compound 0.3 µM"}, "[5]": {"conditions": "second compound 0.1 µM, first compound 0.00949 µM"}, "[6]": {"conditions": "second compound 0.1 µM, first compound 0.03 µM"}, "[7]": {"conditions": "second compound 0.1 µM, first compound 0.0949 µM"}, "[8]": {"conditions": "second compound 0.1 µM, first compound 0.3 µM"}, "[9]": {"conditions": "second compound 0.316 µM, first compound 0.00949 µM"}, "[10]": {"conditions": "second compound 0.316 µM, first compound 0.03 µM"}, "[11]": {"conditions": "second compound 0.316 µM, first compound 0.0949 µM"}, "[12]": {"conditions": "second compound 0.316 µM, first compound 0.3 µM"}, "[13]": {"conditions": "second compound 1 µM, first compound 0.00949 µM"}, "[14]": {"conditions": "second compound 1 µM, first compound 0.03 µM"}, "[15]": {"conditions": "second compound 1 µM, first compound 0.0949 µM"}, "[16]": {"conditions": "second compound 1 µM, first compound 0.3 µM"}, "[17]": {"conditions": "second compound 3.16 µM, first compound 0.00949 µM"}, "[18]": {"conditions": "second compound 3.16 µM, first compound 0.03 µM"}, "[19]": {"conditions": "second compound 3.16 µM, first compound 0.0949 µM"}, "[20]": {"conditions": "second compound 3.16 µM, first compound 0.3 µM"}, "[21]": {"conditions": "second compound 10 µM, first compound 0.00949 µM"}, "[22]": {"conditions": "second compound 10 µM, first compound 0.03 µM"}, "[23]": {"conditions": "second compound 10 µM, first compound 0.0949 µM"}, "[24]": {"conditions": "second compound 10 µM, first compound 0.3 µM"}}}
{"compound": "NC(=O)C(=Cn1cnc(-c2cc(C(F)(F)F)cc(C(F)(F)F)c2)n1)c1cncnc1", "note": "+ CN1CCN(c2cc(C(=O)Nc3cc4cc(-c5cnn(C)c5)ccc4cn3)ccn2)CC1;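 note: spheroids exposed to the compounds for 7 days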;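 for viability, T/C: 100% = DMSO vehicle control viability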", "values": [{"measurement": "IC50", "setting": "second compound 0.0316 µM", "value": 51.3, "unit": "nM"}, {"measurement": "IC50", "setting": "second compound 0.1 µM", "value": "< 9.49", "unit": "nM"}, {"measurement": "IC50", "setting": "second compound 0.316 µM", "value": "< 9.49", "unit": "nM"}, {"measurement": "IC50", "setting": "second compound 1 µM", "value": "< 9.49", "unit": "nM"}, {"measurement": "IC50", "setting": "second compound 3.16 µM", "value": "< 9.49", "unit": "nM"}, {"measurement": "IC50", "setting": "second compound 10 µM", "value": "< 9.49", "unit": "nM"}, {"measurement": "viability, T/C", "setting": "[1]", "value": 69.8, "unit": "%"}, {"measurement": "viability, T/C", "setting": "[2]", "value": 62.5, "unit": "%"}, {"measurement": "viability, T/C", "setting": "[3]", "value": 35.4, "unit": "%"}, {"measurement": "viability, T/C", "setting": "[4]", "value": 20.1, "unit": "%"}, {"measurement": "viability, T/C", "setting": "second compound 0.0316 µM, first compound 0.949 µM", "value": 1.73, "unit": "%"}, {"measurement": "viability, T/C", "setting": "second compound 0.0316 µM, first compound 3 µM", "value": 2.54, "unit": "%"}, {"measurement": "viability, T/C", "setting": "[5]", "value": 50, "unit": "%"}, {"measurement": "viability, T/C", "setting": "[6]", "value": 44.8, "unit": "%"}, {"measurement": "viability, T/C", "setting": "[7]", "value": 25.2, "unit": "%"}, {"measurement": "viability, T/C", "setting": "[8]", "value": 3.61, "unit": "%"}, {"measurement": "viability, T/C", "setting": "second compound 0.1 µM, first compound 0.949 µM", "value": 0.81, "unit": "%"}, {"measurement": "viability, T/C", "setting": "second compound 0.1 µM, first compound 3 µM", "value": 0.34, "unit": "%"}, {"measurement": "viability, T/C", "setting": "[9]", "value": 14, "unit": "%"}, {"measurement": "viability, T/C", "setting": "[10]", "value": 5.04, "unit": "%"}, {"measurement": "viability, T/C", "setting": "[11]", "value": 0.53, "unit": "%"}, {"measurement": "viability, T/C", "setting": "[12]", "value": 0.23, "unit": "%"}, {"measurement": "viability, T/C", "setting": "second compound 0.316 µM, first compound 0.949 µM", "value": 0.23, "unit": "%"}, {"measurement": "viability, T/C", "setting": "second compound 0.316 µM, first compound 3 µM", "value": 0.1, "unit": "%"}, {"measurement": "viability, T/C", "setting": "[13]", "value": 0.37, "unit": "%"}, {"measurement": "viability, T/C", "setting": "[14]", "value": 0.25, "unit": "%"}, {"measurement": "viability, T/C", "setting": "[15]", "value": 0.32, "unit": "%"}, {"measurement": "viability, T/C", "setting": "[16]", "value": 0.28, "unit": "%"}, {"measurement": "viability, T/C", "setting": "second compound 1 µM, first compound 0.949 µM", "value": 0.22, "unit": "%"}, {"measurement": "viability, T/C", "setting": "second compound 1 µM, first compound 3 µM", "value": 1.66, "unit": "%"}, {"measurement": "viability, T/C", "setting": "[17]", "value": 0.39, "unit": "%"}, {"measurement": "viability, T/C", "setting": "[18]", "value": 0.31, "unit": "%"}, {"measurement": "viability, T/C", "setting": "[19]", "value": 0.46, "unit": "%"}, {"measurement": "viability, T/C", "setting": "[20]", "value": 0.38, "unit": "%"}, {"measurement": "viability, T/C", "setting": "second compound 3.16 µM, first compound 0.949 µM", "value": 0.19, "unit": "%"}, {"measurement": "viability, T/C", "setting": "second compound 3.16 µM, first compound 3 µM", "value": 0.14, "unit": "%"}, {"measurement": "viability, T/C", "setting": "[21]", "value": 0.14, "unit": "%"}, {"measurement": "viability, T/C", "setting": "[22]", "value": 0.14, "unit": "%"}, {"measurement": "viability, T/C", "setting": "[23]", "value": 3.64, "unit": "%"}, {"measurement": "viability, T/C", "setting": "[24]", "value": 0.17, "unit": "%"}, {"measurement": "viability, T/C", "setting": "second compound 10 µM, first compound 0.949 µM", "value": 0.24, "unit": "%"}, {"measurement": "viability, T/C", "setting": "second compound 10 µM, first compound 3 µM", "value": 0.2, "unit": "%"}]}
{"compound": "C=CC(=O)Nc1cc(Nc2nccc(-c3cn(C)c4ccccc34)n2)c(OC)cc1N(C)CCN(C)C", "note": "+ CN1CCN(c2cc(C(=O)Nc3cc4cc(-c5cnn(C)c5)ccc4cn3)ccn2)CC1", "values": [{"measurement": "IC50", "setting": "second compound 0.0316 µM", "value": 51.9, "unit": "nM"}, {"measurement": "IC50", "setting": "second compound 0.1 µM", "value": 21.9, "unit": "nM"}, {"measurement": "IC50", "setting": "second compound 0.316 µM", "value": "< 0.949", "unit": "nM"}, {"measurement": "IC50", "setting": "second compound 1 µM", "value": "< 0.949", "unit": "nM"}, {"measurement": "IC50", "setting": "second compound 3.16 µM", "value": "< 0.949", "unit": "nM"}, {"measurement": "IC50", "setting": "second compound 10 µM", "value": "< 0.949", "unit": "nM"}, {"measurement": "viability, T/C", "setting": "second compound 0.0316 µM, first compound 0.000949 µM", "value": 84.1, "unit": "%"}, {"measurement": "viability, T/C", "setting": "second compound 0.0316 µM, first compound 0.003 µM", "value": 90.5, "unit": "%"}, {"measurement": "viability, T/C", "setting": "[1]", "value": 80.3, "unit": "%"}, {"measurement": "viability, T/C", "setting": "[2]", "value": 61.9, "unit": "%"}, {"measurement": "viability, T/C", "setting": "[3]", "value": 37.1, "unit": "%"}, {"measurement": "viability, T/C", "setting": "[4]", "value": 27.3, "unit": "%"}, {"measurement": "viability, T/C", "setting": "second compound 0.1 µM, first compound 0.000949 µM", "value": 76, "unit": "%"}, {"measurement": "viability, T/C", "setting": "second compound 0.1 µM, first compound 0.003 µM", "value": 70.6, "unit": "%"}, {"measurement": "viability, T/C", "setting": "[5]", "value": 59.1, "unit": "%"}, {"measurement": "viability, T/C", "setting": "[6]", "value": 49.6, "unit": "%"}, {"measurement": "viability, T/C", "setting": "[7]", "value": 26.8, "unit": "%"}, {"measurement": "viability, T/C", "setting": "[8]", "value": 22, "unit": "%"}, {"measurement": "viability, T/C", "setting": "second compound 0.316 µM, first compound 0.000949 µM", "value": 19.2, "unit": "%"}, {"measurement": "viability, T/C", "setting": "second compound 0.316 µM, first compound 0.003 µM", "value": 16.2, "unit": "%"}, {"measurement": "viability, T/C", "setting": "[9]", "value": 19.7, "unit": "%"}, {"measurement": "viability, T/C", "setting": "[10]", "value": 9.31, "unit": "%"}, {"measurement": "viability, T/C", "setting": "[11]", "value": 15.2, "unit": "%"}, {"measurement": "viability, T/C", "setting": "[12]", "value": 7.92, "unit": "%"}, {"measurement": "viability, T/C", "setting": "second compound 1 µM, first compound 0.000949 µM", "value": 0.41, "unit": "%"}, {"measurement": "viability, T/C", "setting": "second compound 1 µM, first compound 0.003 µM", "value": 0.88, "unit": "%"}, {"measurement": "viability, T/C", "setting": "[13]", "value": 1.96, "unit": "%"}, {"measurement": "viability, T/C", "setting": "[14]", "value": 0.37, "unit": "%"}, {"measurement": "viability, T/C", "setting": "[15]", "value": 0.71, "unit": "%"}, {"measurement": "viability, T/C", "setting": "[16]", "value": 0.79, "unit": "%"}, {"measurement": "viability, T/C", "setting": "second compound 3.16 µM, first compound 0.000949 µM", "value": 0.27, "unit": "%"}, {"measurement": "viability, T/C", "setting": "second compound 3.16 µM, first compound 0.003 µM", "value": 0.34, "unit": "%"}, {"measurement": "viability, T/C", "setting": "[17]", "value": 0.26, "unit": "%"}, {"measurement": "viability, T/C", "setting": "[18]", "value": 0.66, "unit": "%"}, {"measurement": "viability, T/C", "setting": "[19]", "value": 4.28, "unit": "%"}, {"measurement": "viability, T/C", "setting": "[20]", "value": 0.48, "unit": "%"}, {"measurement": "viability, T/C", "setting": "second compound 10 µM, first compound 0.000949 µM", "value": 7.4, "unit": "%"}, {"measurement": "viability, T/C", "setting": "second compound 10 µM, first compound 0.003 µM", "value": 0.25, "unit": "%"}, {"measurement": "viability, T/C", "setting": "[21]", "value": 3.1, "unit": "%"}, {"measurement": "viability, T/C", "setting": "[22]", "value": 0.21, "unit": "%"}, {"measurement": "viability, T/C", "setting": "[23]", "value": 1.3, "unit": "%"}, {"measurement": "viability, T/C", "setting": "[24]", "value": 2.16, "unit": "%"}]}
